Data from patent US9974787B2, “Modified albumin microbubble” (National Taiwan University of Science and Technology, priority 2016, dated 2018).
Several values for one entry are separate records, joined by “and”; a condition that tells them apart may be missing. Equal values may be shown once. One block for each molecule: values may come before it.

Key:
[1] = Transdermal penetration study of Mx released by Mx-COL-MBs (Franz diffusion cell); format: in vitro ADME, porcine; conditions: Mx 0.3 mg/ml; for Amount of skin penetration (cumulative Mx penetration amount): 18th hour; for Amount of total penetration: 18 hours; for Amount of skin absorption: after 18 hours
Protocol: Transdermal Penetration Study of Mx Released by Mx-COL-MBs
The procedures of the study included: interposing a piece of 3 mm-thick porcine ear skin between a donor cell and a receptor cell of the Franz diffusion cell at a temperature of 37±0.5° C. 1 ml of any one of the abovementioned 6 solutions was applied to the donor cell facing the stratum corneum (SC) side, enabling the MB, Mx, or Mx-COL-MB to penetrate the Parafilm on a bottom of the donor cell and reach the skin. Besides, the receptor cell facing the dermis side was filled with 12 ml of PBS at pH 7.4, accompanied with magnetic stirring at the rate of 600 rpm and 0.01% gentamicin to prevent bacterial degradation of the Mx during the penetration process. At the 0.5th hr, a 1-MHz ultrasound sonicator was positioned 3 mm from the top of the skin, and the skin was sonicated at a power density of 3 W/cm^2 for 1 min. At the time intervals of 0.5, 1, 2, 3, 4, 5, 6, 8, 12 and 18 hours, 1 ml of receptor solution sample filtered by 0.2-μm pores was extracted from the receptor cell to measure the Mx content in the receptor solution, with the receptor solution refilled each time with the same volume of PBS. After 18 hours, the porcine skin sample was washed and then homogenized with 1 ml of the receptor solution. The supernatant was centrifuged to acquire further supernatant to measure the absorbed amount of Mx in the porcine ear skin.

C57BL/6 mice = test: Study of animal hair growth (skin luminosity of shaved back); format: in vivo; conditions: for number of mice with significantly lower skin luminosity: day 10, Mx 0.3 mg/ml topical; for hair growth rate: day 16, Mx 0.3 mg/ml
Protocol: Study of Animal Hair Growth
The study utilized 6-week-old C57BL/6 mice weighing 20-25 g, which were shaved at an area of about 10 cm^2 in the back at 8 weeks old, when all of the hair follicles were synchronized in the telogen phase. […] Among all groups, the US treatment was applied at 3 W/cm^2 for 1 min, and the concentration of Mx was 0.3 mg/ml (i.e. 0.5 ml/cm^2) in all groups. The change in skin luminosity of the shaved area was assessed using the Chroma Meter. The hair growth rate was calculated according to the following equation: Hair growth rate (%)=(L1−Ln)/L1×100%
where L1 is the luminosity index of the shaved area, and Ln is the luminosity index of the area at different time intervals.

[2] = Study of transdermal penetration depth (FITC); conditions: 0.1 mg FITC, retained 6 hr on porcine ear skin
Protocol: Study of Transdermal Penetration Depth
Each group contained 0.1 mg FITC (fluorescein isothiocyanate), and was uniformly loaded onto the porcine ear skin with an area of 4.5 cm^2 and a thickness of 3 mm, sonicated by the 1-MHz ultrasound sonicator successively at power density of 3 W/cm^2, with each sonication period of 1 min. After sonication, the FITC (and the MBs) retained on the porcine ear skin for 6 hr, and was then washed away.
FIG. 7A-7C are bright-field images, and FIG. 7D-7F are dark-field fluorescent images.

[3] = with ultrasound treatment 3 W/cm^2, 1 min
[4] = with US treatment 3 W/cm^2, 1 min

Amount of skin penetration (cumulative Mx penetration amount) ([1]; without ultrasound treatment): 103.1 ± 0.5 µg/mL and 103.1 ± 0.51 µg/mL
Amount of total penetration ([1]; without ultrasound treatment): 155.54 ± 10.05 µg/mL
Amount of skin absorption ([1]; without ultrasound treatment): 52.42 ± 9.55 µg/mL
Molecule: Nc1cc(N2CCCCC2)nc(N)[n+]1[O-] [Comparative example 4, Minoxidil]
number of mice with significantly lower skin luminosity (C57BL/6 mice; without US treatment): 1
hair growth rate (C57BL/6 mice; without US treatment): 45.5%

Amount of skin penetration (cumulative Mx penetration amount) [1, 3]: 113.0 ± 6.0 µg/mL and 113.01 ± 5.95 µg/mL
Amount of total penetration [1, 3]: 126.04 ± 7.52 µg/mL
Amount of skin absorption [1, 3]: 33.02 ± 1.56 µg/mL
Molecule: Nc1cc(N2CCCCC2)nc(N)[n+]1[O-] [Comparative example 8, Minoxidil]
number of mice with significantly lower skin luminosity (C57BL/6 mice; [4]): 1
hair growth rate (C57BL/6 mice; [4]): 64.5%

Molecule: fluorescein isothiocyanate [Comparative example 7]
penetration depth of FITC ([2]; with US treatment 1 MHz, 3 W/cm^2, 1 min): 405±23 μm

Molecule: fluorescein isothiocyanate [Comparative example 6]
penetration depth of FITC ([2]; without US treatment): 312±19 μm
